This is an account of results in patent publication US20080280937A1, “Ligand Conjugates of Vinca Alkaloids, Analogs, and Derivatives” (priority 2005, published 2008).

The test system of data set [1] is folate receptor-positive KB cells. Format: cell-based, human. As to conditions: for competition by excess folic acid of effect on 3H-thymidine incorporation: with versus without at least 100-fold excess of folic acid. On the procedure: Inhibition of Cellular DNA Synthesis. The compounds described herein were evaluated using an in vitro cytotoxicity assay that predicts the ability of the drug to inhibit the growth of folate receptor-positive KB cells. The compounds were comprised of folate linked to a respective chemotherapeutic drug, as prepared according to the protocols described herein. The KB cells were exposed for predetermined periods of time at 37° C. to the indicated concentrations of folate-drug conjugate in the absence or presence of at least a 100-fold excess of folic acid. The cells were then rinsed with fresh culture medium and incubated in fresh culture medium for 72 hours at 37° C. Cell viability was assessed using a ^3H-thymidine incorporation assay.
In general terms: Dividing cells build labelled thymidine or BrdU into new DNA.

A further data set addresses T1, folate receptors (FRs) (Homo sapiens, UniProt P15328).
T1 construct: FR-positive KB cells were heavily seeded into 24-well cell culture plates; endogenous in cells; host or cells: KB cells
Kind of data set: Relative Affinity Assay (displacement of 3H-folic acid on FR-positive KB cells). Type of data set: binding. Conditions: for relative binding affinity versus folic acid at folic acid receptors: figure legends, folic acid = 1.0, 1 hour at 37° C; for Relative Folate Receptor Affinity: summary table. On the procedure: Relative Affinity Assay. The affinity of the compounds described herein for folate receptors (FRs) relative to folate was determined according to a previously described method (Westerhof, G. R., J. H. Schornagel, et al. (1995) Mol. Pharm. 48: 459-471) with slight modification. Briefly, FR-positive KB cells were heavily seeded into 24-well cell culture plates and allowed to adhere to the plastic for 18 h. Spent incubation media was replaced in designated wells with folate-free RPMI (FFRPMI) supplemented with 100 nM ^3H-folic acid in the absence and presence of increasing concentrations of test article or folic acid. Cells were incubated for 60 min at 37° C. and then rinsed 3 times with PBS, pH 7.4, followed by the addition of 500 μL of 1% SDS in PBS, pH 7.4. Cell lysates were then collected and added to individual vials containing 5 mL of scintillation cocktail, and then counted for radioactivity. Negative control tubes contained only the ^3H-folic acid in FFRPMI (no competitor). Positive control tubes contained a final concentration of 1 mM folic acid, and CPMs measured in these samples (representing non-specific binding of label) were subtracted from all samples.
On the technique in general: Loss of bound radioactivity is the signal in a displacement assay; it reports binding, not function.

In data set [2] the test system is Folate receptor-negative 4T-1 tumor cells. As to the kind of experiment: 4T-1 Tumor Volume Assay. Format: in vivo, Balb/c mice. Conditions: 3 μmol/kg TIW for 3 weeks. The source says:
4T-1 Tumor Volume Assay. Six to seven week-old mice (female Balb/c strain) were obtained from Harlan, Inc., Indianapolis, Ind. The mice were maintained on Harlan's folate-free chow for a total of three weeks prior to the onset of and during this experiment. Folate receptor-negative 4T-1 tumor cells (1×10^6 cells per animal) were inoculated in the subcutis of the right axilla. Approximately 5 days post tumor inoculation when the 4T-1 tumor average volume was ˜100 mm^3, mice (5/group) were injected i.v. three times a week (TIW), for 3 weeks with 3 μmol/kg of drug delivery conjugate or with an equivalent dose volume of PBS (control). Tumor growth was measured using calipers at 2-day or 3-day intervals in each treatment group. Tumor volumes were calculated using the equation V=a×b^2/2, where “a” is the length of the tumor and “b” is the width expressed in millimeters.

Data set [3] can be described thus: Animal Weight Determination.
Method: Animal Weight Determination. The percentage weight change of the mice was determined in mice (5 mice/group) on the indicated days post-tumor inoculation (PTI) as shown in the graph for the samples described in the related tumor volume assay.
Another data set has as its system M109 tumors. As to the kind of experiment: Inhibition of Tumor Growth in Mice, subcutaneous M109 tumors. Type of data set: in vivo. Conditions: Balb/c mice. On the procedure: Inhibition of Tumor Growth in Mice. The anti-tumor activity of the compounds described herein, when administered intravenously (i.v.) to tumor-bearing animals, was evaluated in Balb/c mice bearing subcutaneous M109 tumors. Approximately 11 days post tumor inoculation in the subcutis of the right axilla with 1×10^6 M109 cells (tumor volume range at t0=between 60 and 80 mm^3), mice (5/group) were injected i.v. three times a week (TIW), for a defined length of time (e.g., 2-3 weeks) with (a) a defined dose level on a per kilogram body weight basis of a drug delivery conjugate described herein, or (b) an equivalent dose volume of PBS (control). Tumor growth was measured using calipers at 2-day or 3-day intervals in each treatment group. Tumor volumes were calculated using the equation V=a×b^2/2, where “a” is the length of the tumor and “b” is the width expressed in millimeters.

Where [4] appears, read: KB cells, without excess folic acid, read-out: IC50, 3H-thymidine incorporation in KB cells.

pIC50: −log10 of the molar value. Where “and” joins values, the source holds several entries; their conditions need not be identical. Identical values can stand only once. Entries after “also recorded” stand apart in the source; their conditions may differ. Like-named read-outs stand apart in the source and are kept apart here.

T1 sequence (P15328 25-234): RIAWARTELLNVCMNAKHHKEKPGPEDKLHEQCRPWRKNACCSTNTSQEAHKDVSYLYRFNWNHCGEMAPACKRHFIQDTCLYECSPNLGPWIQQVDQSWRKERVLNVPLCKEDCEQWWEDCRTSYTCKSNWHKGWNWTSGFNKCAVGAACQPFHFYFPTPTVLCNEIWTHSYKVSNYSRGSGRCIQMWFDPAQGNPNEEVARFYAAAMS

With `CC[C@]1(O)C[C@H]2CN(CCc3c([nH]c4ccccc34)[C@@](C(=O)OC)(c3cc4c(cc3OC)N(C)[C@H]3[C@@](O)(C(=O)NNC(=O)OCCSSC[C@H](NC(=O)c5ccc(NCc6cnc7nc(N)[nH]c(=O)c7n6)cc5)C(=O)O)[C@H](O)[C@]5(CC)C=CCN6CC[C@]43[C@@H]65)C2)C1` [Example 19], the “Folate Receptor Competition” value in data set [1] (summary table) is “Yes”. In addition, the “competition by excess folic acid of effect on 3H-thymidine incorporation” value (from here on “competition by excess folic acid”) in data set [1] is “folate competes”. On folate receptors (FRs), the “relative binding affinity versus folic acid at folic acid receptors” value is reported as 0.046 and the “Relative Folate Receptor Affinity” value was determined as 0.05.
Turning to `CC[C@]1(O)C[C@H]2CN(CCc3c([nH]c4ccccc34)[C@@](C(=O)OC)(c3cc4c(cc3OC)N(C)[C@H]3[C@@](O)(C(=O)NN=CCOCCOCCN5C(=O)CC(SC[C@H](NC(=O)[C@H](CC(=O)O)NC(=O)[C@H](CC(=O)O)NC(=O)[C@H](CCCNC(=N)N)NC(=O)[C@H](CC(=O)O)NC(=O)CC[C@H](NC(=O)c6ccc(NCc7cnc8nc(N)[nH]c(=O)c8n7)cc6)C(=O)O)C(=O)O)C5=O)[C@H](O)[C@]5(CC)C=CCN6CC[C@]43[C@@H]65)C2)C1` (stereo partly shown) [Example 6], the “growth of FR-negative 4T-1 tumors” value in data set [2] is on record as “not folate receptor (FR)-negative tumors; also recorded: absence of activity”. Moreover, the “weight of nu/nu mice” value was “absence of an effect” in data set [3] (5 μmol/kg for 3 weeks (FIG. 16B)); “does not affect the weight of the mice; also recorded: absence of an effect” in data set [3] (10 μmol/kg TIW for 3 weeks (FIG. 5B)); “little effect on the weight of the mice; also recorded: absence of an effect” in data set [3] (1, 5, and 10 μmol/kg TIW for 3 weeks (FIG. 6B)). The weight of mice entry in data set [3] (10 μmol/kg TIW for 3 weeks (FIG. 7B)) was “absence of an effect”. Besides, the “weight of Balb/c mice” value in data set [3] (10 μmol/kg for 3 weeks (FIG. 14B)) is on record as “absence of an effect”. The pIC50 in data set [1] (setting [4]) is 7.85. Also, in data set [1] (summary table), the “Folate Receptor Competition” value is “Yes”. In addition, in data set [1], the “competition by excess folic acid” value is on record as “folate competes”. Also, the “relative binding affinity versus folic acid at folic acid receptors” value at folate receptors (FRs) is reported as 0.35. Also, on folate receptors (FRs), the “Relative Folate Receptor Affinity” value is reported as 0.31. Also, the entries for the “growth of M109 tumors” value in the data set with M109 tumors (1.5 μmol/kg TIW), with M109 tumors (3 μmol/kg TIW for 3 weeks) and with M109 tumors (10 μmol/kg TIW for 3 weeks) were “inhibits the growth of solid tumors”, “inhibits the growth of solid M109 tumors” and “inhibits the growth of solid tumors”, respectively.
Take `CC[C@]1(O)C[C@H]2CN(CCc3c([nH]c4ccccc34)[C@@](C(=O)OC)(c3cc4c(cc3OC)N(C)[C@H]3[C@@](O)(C(=O)NNC(=O)OCCSSC[C@H](NC(=O)[C@H](CN)NC(=O)[C@H](CC(=O)O)NC(=O)[C@H](CC(=O)O)NC(=O)[C@H](CC(=O)O)NC(=O)CC[C@H](NC(=O)c5ccc(NCc6cnc7nc(N)[nH]c(=O)c7n6)cc5)C(=O)O)C(=O)O)[C@H](O)[C@]5(CC)C=CCN6CC[C@]43[C@@H]65)C2)C1` [Example 10]: the pIC50 in data set [1] (setting [4]) was 7.24 and ~7.24. In data set [1], the “competition by excess folic acid” value is “folate competes”. Further, at folate receptors (FRs), the “relative binding affinity versus folic acid at folic acid receptors” value is given as 0.24.
In the case of `CC[C@]1(O)C[C@H]2CN(CCc3c([nH]c4ccccc34)[C@@](C(=O)OC)(c3cc4c(cc3OC)N(C)[C@H]3[C@@](O)(C(=O)NNC(=O)OCCSSC[C@H](NC(=O)CC[C@H](NC(=O)c5ccc(NCc6cnc7nc(N)[nH]c(=O)c7n6)cc5)C(=O)O)C(=O)O)[C@H](O)[C@]5(CC)C=CCN6CC[C@]43[C@@H]65)C2)C1` [Example 18], the “Folate Receptor Competition” value in data set [1] (summary table) was “Yes”. Besides, the “competition by excess folic acid” value in data set [1] was “folate competes”. In addition, at folate receptors (FRs), the “relative binding affinity versus folic acid at folic acid receptors” value is reported as 0.13 and the “Relative Folate Receptor Affinity” value amounted to 0.13.
Regarding `CC[C@]1(O)C[C@H]2CN(CCc3c([nH]c4ccccc34)[C@@](C(=O)OC)(c3cc4c(cc3OC)N(C)[C@H]3[C@@](O)(C(=O)NNC(=O)OCCSSC[C@H](NC(=O)[C@H](CC(=O)O)NC(=O)[C@H](CC(=O)O)NC(=O)[C@H](CCCNC(=N)N)NC(=O)[C@H](CC(=O)O)NC(=O)CC[C@H](NC(=O)c5ccc(NCc6cnc7nc(N)[nH]c(=O)c7n6)cc5)C(=O)O)C(=O)O)[C@H](O)[C@]5(CC)C=CCN6CC[C@]43[C@@H]65)C2)C1` [Example 7], the pIC50 was 8.05 and ~7.80 in data set [1] (setting [4]); above 7.00 in data set [1] (summary table, read-out: IC50 KB Cells). In addition, the “Relative Folate Receptor Affinity” value at folate receptors (FRs) came out at 0.17.
